# Reference: patent US9834571B2, “Compounds for inhibiting cell proliferation in EGFR-driven cancers” (ARIAD Pharmaceuticals, Inc., priority 2012, dated 2017)
# Columns and labels:
# [1] = target: human EGFR (native sequence) (Homo sapiens, UniProt P00533); assay: Kinase inhibitory activity against human EGFR (native sequence); format: biochemical; settings: human EGFR native sequence; 10 μM ATP; read-out: IC50 for kinase inhibition, EGFR
# Method in brief: (§1)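 Testing covers a ten-concentration range beginning at 3 μM, performed once per concentration at an ATP level of 10 μM.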
# EGFR L858R = EGFR L858R (Homo sapiens, UniProt P00533, L858R); assay: Kinase inhibitory activity against EGFR bearing the L858R mutation; format: biochemical; settings: EGFR L858R; 10 μM ATP; read-out: IC50 for kinase inhibition, EGFR L858R
# Chain of EGFR L858R (P00533 25-1210 L858R): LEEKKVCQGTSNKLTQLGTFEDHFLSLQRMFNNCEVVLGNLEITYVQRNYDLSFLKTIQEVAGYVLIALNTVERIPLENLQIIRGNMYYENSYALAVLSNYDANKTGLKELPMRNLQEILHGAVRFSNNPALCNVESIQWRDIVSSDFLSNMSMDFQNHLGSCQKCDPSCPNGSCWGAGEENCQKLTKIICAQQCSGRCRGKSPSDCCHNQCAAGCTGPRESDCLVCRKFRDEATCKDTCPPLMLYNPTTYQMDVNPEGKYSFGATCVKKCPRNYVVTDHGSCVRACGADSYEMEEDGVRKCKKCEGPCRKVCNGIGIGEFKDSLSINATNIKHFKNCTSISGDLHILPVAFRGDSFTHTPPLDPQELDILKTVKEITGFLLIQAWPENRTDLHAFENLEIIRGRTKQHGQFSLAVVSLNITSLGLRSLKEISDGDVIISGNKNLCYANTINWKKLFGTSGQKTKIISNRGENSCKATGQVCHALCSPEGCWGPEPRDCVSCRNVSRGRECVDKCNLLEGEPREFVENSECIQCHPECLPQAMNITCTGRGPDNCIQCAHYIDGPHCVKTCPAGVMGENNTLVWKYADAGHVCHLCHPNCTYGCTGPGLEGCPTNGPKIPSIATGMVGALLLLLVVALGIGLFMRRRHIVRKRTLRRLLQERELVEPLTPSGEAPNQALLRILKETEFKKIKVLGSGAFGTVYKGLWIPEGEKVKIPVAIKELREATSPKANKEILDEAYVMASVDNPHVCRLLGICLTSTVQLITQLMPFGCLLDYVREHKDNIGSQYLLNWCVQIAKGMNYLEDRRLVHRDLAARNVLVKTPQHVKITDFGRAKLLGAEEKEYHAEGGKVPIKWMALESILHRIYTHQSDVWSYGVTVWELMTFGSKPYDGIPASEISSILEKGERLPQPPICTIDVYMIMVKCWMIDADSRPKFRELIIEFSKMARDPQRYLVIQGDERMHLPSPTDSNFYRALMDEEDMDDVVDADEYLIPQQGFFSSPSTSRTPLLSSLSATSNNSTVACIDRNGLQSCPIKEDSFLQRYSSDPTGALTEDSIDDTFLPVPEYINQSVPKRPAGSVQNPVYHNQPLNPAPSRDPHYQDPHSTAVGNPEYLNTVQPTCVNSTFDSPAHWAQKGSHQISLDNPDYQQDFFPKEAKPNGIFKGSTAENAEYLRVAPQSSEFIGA
# Method in brief: as §1
# [2] = target: T1, BaF3 cells expressing the target EGFR mutations (Homo sapiens, UniProt P00533, T790M, cells depend on it, form not given); assay: Antiproliferative activity (MTT) against BaF3 cells expressing the target EGFR mutations; format: cell-based; settings: BAF3 EGFR DEL T790M PURO POOL cells, read-out: IC50, BAF3 EGFR DEL T790M PURO POOL
# T1 construct: IC50, BAF3 EGFR DEL T790M PURO POOL; other: BAF3 EGFR DEL T790M PURO POOL cells, MTT; other: BAF3 EGFR DEL T790M PURO POOL cells; MTT
# T1 sequence (P00533 with tags, fused parts or gaps DEL746-750/T790M, form open): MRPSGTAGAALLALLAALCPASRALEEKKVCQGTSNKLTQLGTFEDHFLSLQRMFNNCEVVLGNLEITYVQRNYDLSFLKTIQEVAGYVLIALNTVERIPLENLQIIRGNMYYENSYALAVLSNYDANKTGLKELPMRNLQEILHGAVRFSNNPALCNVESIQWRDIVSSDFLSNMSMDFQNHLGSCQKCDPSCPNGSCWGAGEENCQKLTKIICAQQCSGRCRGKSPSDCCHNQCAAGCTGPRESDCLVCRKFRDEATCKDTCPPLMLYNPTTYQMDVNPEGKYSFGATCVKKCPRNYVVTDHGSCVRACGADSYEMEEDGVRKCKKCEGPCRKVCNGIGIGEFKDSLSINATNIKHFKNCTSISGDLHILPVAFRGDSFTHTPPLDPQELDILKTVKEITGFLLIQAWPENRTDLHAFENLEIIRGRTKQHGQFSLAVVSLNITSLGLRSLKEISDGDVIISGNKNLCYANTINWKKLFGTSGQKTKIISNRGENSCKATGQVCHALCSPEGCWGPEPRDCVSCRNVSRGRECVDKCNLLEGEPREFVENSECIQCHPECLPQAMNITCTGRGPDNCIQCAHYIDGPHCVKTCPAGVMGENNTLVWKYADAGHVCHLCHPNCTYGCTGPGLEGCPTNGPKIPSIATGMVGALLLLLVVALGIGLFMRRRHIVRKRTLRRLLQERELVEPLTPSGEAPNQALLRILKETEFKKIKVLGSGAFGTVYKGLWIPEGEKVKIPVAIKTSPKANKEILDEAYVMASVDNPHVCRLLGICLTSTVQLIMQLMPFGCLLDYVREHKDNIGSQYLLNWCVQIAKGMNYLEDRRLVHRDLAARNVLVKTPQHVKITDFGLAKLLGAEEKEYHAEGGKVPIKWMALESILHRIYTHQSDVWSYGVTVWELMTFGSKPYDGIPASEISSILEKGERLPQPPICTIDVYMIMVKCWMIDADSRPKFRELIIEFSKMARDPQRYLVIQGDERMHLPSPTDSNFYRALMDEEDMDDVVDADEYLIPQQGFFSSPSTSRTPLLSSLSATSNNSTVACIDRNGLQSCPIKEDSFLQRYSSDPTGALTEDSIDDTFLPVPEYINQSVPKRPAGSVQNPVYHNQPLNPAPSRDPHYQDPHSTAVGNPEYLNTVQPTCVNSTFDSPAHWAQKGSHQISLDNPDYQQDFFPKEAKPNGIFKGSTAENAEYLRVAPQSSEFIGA
# Method in brief: (§2)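 Compounds were tested on BaF3 cells bearing target EGFR mutations and on control BaF3 cells with wildtype EGFR; viability was then determined by MTT.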
# [3] = target: T2, BaF3 cells expressing the target EGFR mutations (Homo sapiens, UniProt P00533, T790M/L858R, cells depend on it); assay: as above; format: cell-based; settings: BAF3 EGFR L858R-T790M PURO POOL cells, read-out: IC50, BAF3 EGFR L858R-T790M PURO POOL
# T2 construct: IC50, BAF3 EGFR L858R-T790M PURO POOL; other: BAF3 EGFR L858R-T790M PURO POOL cells, MTT; IC50, BAF3 EGFR L858R-T790M PURO POOL; other: BAF3 EGFR L858R-T790M PURO POOL cells; MTT
# T2 sequence (P00533 whole entry T790M/L858R): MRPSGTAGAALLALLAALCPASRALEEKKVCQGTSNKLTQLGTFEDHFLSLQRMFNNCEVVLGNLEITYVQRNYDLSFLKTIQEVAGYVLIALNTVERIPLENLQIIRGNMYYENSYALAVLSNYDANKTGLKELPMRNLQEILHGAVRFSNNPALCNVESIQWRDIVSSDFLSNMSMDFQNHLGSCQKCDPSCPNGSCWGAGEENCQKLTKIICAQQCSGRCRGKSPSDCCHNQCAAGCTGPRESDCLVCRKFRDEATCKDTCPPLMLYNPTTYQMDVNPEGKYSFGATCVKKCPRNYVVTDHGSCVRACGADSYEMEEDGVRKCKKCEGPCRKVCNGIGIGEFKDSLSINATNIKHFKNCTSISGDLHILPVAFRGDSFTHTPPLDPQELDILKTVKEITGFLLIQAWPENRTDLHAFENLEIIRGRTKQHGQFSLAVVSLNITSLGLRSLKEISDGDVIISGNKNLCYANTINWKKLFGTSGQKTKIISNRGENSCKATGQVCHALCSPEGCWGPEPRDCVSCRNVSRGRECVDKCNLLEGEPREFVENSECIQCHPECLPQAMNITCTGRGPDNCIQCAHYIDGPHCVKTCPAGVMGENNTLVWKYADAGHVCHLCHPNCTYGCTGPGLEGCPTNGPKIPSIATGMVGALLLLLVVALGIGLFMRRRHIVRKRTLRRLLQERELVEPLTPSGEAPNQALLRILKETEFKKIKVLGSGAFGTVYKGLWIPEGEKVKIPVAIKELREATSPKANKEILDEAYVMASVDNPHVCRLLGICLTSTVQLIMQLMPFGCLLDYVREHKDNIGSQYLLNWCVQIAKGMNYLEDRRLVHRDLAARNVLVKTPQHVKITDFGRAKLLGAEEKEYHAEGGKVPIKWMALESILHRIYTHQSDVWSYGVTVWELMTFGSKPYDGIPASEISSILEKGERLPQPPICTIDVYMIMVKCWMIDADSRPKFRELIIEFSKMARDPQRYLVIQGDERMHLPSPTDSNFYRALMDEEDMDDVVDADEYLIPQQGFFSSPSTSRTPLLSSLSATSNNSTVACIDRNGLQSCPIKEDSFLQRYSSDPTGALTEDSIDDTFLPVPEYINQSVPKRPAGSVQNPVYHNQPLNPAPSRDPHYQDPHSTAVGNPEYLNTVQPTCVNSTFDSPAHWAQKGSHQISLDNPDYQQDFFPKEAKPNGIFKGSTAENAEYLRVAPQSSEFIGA
# Method in brief: as §2
# [4] = tested on: BaF3 cells expressing wildtype EGFR; assay: Antiproliferative activity (MTT) against control BaF3 cells expressing wildtype EGFR; format: cell-based; settings: Mus musculus, BAF3 PARENTAL cells (control)
# Method in brief: as §2
# EGFR L858R/T790M = EGFR L858R/T790M (Homo sapiens, UniProt P00533, L858R/T790M); assay: Kinase inhibitory activity against EGFR bearing the L858R/T790M double mutation; format: biochemical; settings: EGFR L858R/T790M double mutation; 10 μM ATP; read-out: IC50 for kinase inhibition, EGFR L858R T790M
# Chain of EGFR L858R/T790M (P00533 25-1210 T790M/L858R): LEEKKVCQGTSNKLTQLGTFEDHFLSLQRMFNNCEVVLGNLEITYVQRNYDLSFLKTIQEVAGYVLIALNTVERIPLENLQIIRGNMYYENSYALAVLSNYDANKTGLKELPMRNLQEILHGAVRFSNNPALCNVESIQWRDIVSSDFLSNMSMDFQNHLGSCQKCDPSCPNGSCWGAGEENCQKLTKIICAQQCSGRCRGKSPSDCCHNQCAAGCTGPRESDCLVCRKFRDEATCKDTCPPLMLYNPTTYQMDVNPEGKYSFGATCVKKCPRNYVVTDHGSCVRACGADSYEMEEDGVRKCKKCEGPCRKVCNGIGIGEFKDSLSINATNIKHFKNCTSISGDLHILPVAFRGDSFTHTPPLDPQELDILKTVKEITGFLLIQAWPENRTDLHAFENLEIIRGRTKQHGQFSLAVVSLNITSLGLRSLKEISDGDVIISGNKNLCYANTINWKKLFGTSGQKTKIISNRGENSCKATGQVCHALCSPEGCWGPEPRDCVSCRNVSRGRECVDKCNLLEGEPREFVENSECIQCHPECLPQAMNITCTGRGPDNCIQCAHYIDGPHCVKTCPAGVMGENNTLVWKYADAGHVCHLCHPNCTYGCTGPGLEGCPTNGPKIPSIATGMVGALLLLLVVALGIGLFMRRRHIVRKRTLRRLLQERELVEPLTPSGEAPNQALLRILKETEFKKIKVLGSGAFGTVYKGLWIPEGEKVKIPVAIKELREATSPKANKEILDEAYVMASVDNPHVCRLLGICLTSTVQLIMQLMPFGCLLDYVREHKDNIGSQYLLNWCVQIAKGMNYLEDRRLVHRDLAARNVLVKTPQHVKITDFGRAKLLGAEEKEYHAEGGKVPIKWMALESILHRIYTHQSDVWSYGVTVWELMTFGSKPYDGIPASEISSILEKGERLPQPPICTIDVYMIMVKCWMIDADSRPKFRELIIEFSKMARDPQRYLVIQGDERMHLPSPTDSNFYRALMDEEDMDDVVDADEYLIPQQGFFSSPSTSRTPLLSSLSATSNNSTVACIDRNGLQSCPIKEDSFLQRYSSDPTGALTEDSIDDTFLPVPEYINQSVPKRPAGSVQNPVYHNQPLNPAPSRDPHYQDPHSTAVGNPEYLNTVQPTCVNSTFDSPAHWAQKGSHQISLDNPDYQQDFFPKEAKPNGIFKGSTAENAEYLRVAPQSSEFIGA
# Method in brief: as §1
Compound,IC50 [1] [nM],IC50 (EGFR L858R) [nM],GI50 [2] [nM],GI50 [3] [nM],IC50 [4] [nM],IC50 (EGFR L858R/T790M) [nM]
"C=CC(=O)Nc1cc(Nc2ncc(Cl)c(Nc3ccccc3P(C)(C)=O)n2)c(OC)cc1N1CCC(N)C1 (stereo not drawn) [Example 57, N-(2-(3-aminopyrrolidin-1-yl)-5-((5-chloro-4-((2-(dimethylphosphoryl)phenyl)amino)pyrimidin-2-yl)amino)-4-methoxyphenyl)acrylamide]",< 50,< 50,≥ 250,≥ 250,≥ 250,< 50
"COc1ccc(NC(=O)/C=C/C(=O)NCCN(C)C)cc1Nc1ncc(Cl)c(Nc2ccccc2P(C)(C)=O)n1 [Example 58, N1-(3-((5-chloro-4-((2-(dimethylphosphoryl)phenyl)amino)pyrimidin-2-yl)amino)-4-methoxyphenyl)-N4-(2-(dimethylamino)ethyl)fumaramide]",< 50,< 50,≥ 250,≥ 250,≥ 250,< 50
"COc1ccc(NC(=O)/C=C/C(=O)N2CCN(C)CC2)cc1Nc1ncc(Cl)c(Nc2ccccc2P(C)(C)=O)n1 [Example 59, (E)—N-(3-((5-chloro-4-((2-(dimethylphosphoryl)phenyl)amino)pyrimidin-2-yl)amino)-4-methoxyphenyl)-4-(4-methylpiperazin-1-yl)-4-oxobut-2-enamide]",< 50,< 50,101 to 250,≥ 250,≥ 250,< 50
"COc1ccc(NC(=O)/C=C/C(=O)N(C)C)cc1Nc1ncc(Cl)c(Nc2ccccc2P(C)(C)=O)n1 [Example 60, N1-(3-((5-chloro-4-((2-(dimethylphosphoryl)phenyl)amino)pyrimidin-2-yl)amino)-4-methoxyphenyl)-N4,N4-dimethylfumaramide]",≥ 250,50 to 100,≥ 250,≥ 250,≥ 250,101 to 250
"COc1ccc(NC(=O)/C=C\C(=O)O)cc1Nc1ncc(Cl)c(Nc2ccccc2P(C)(C)=O)n1 [Example 61, (Z)-4-((3-((5-chloro-4-((2-(dimethylphosphoryl)phenyl)amino)pyrimidin-2-yl)amino)-4-methoxyphenyl)amino)-4-oxobut-2-enoic acid]",≥ 250,≥ 250,≥ 250,≥ 250,≥ 250,101 to 250
"COc1ccc(NC(=O)/C=C\C(=O)N(C)C)cc1Nc1ncc(Cl)c(Nc2ccccc2P(C)(C)=O)n1 [Example 62, N1-(3-((5-chloro-4-((2-(dimethylphosphoryl)phenyl)amino)pyrimidin-2-yl)amino)-4-methoxyphenyl)-N4,N4-dimethylmaleamide]",≥ 250,≥ 250,≥ 250,≥ 250,≥ 250,≥ 250
"COc1ccc(NC(=O)/C=C\C(=O)N2CCN(C)CC2)cc1Nc1ncc(Cl)c(Nc2ccccc2P(C)(C)=O)n1 [Example 63, (Z)-N-(3-((5-chloro-4-((2-(dimethylphosphoryl)phenyl)amino)pyrimidin-2-yl)amino)-4-methoxyphenyl)-4-(4-methylpiperazin-1-yl)-4-oxobut-2-enamide]",≥ 250,101 to 250,≥ 250,≥ 250,≥ 250,≥ 250
"COc1ccc(NC(=O)/C=C\C(=O)NCCN(C)C)cc1Nc1ncc(Cl)c(Nc2ccccc2P(C)(C)=O)n1 [Example 64, N1-(3-((5-chloro-4-((2-(dimethylphosphoryl)phenyl)amino)pyrimidin-2-yl)amino)-4-methoxyphenyl)-N4-(2-(dimethylamino)ethyl)maleamide]",≥ 250,< 50,≥ 250,≥ 250,≥ 250,< 50
"C=CC(=O)Nc1cc(Nc2ncc(Cl)c(Nc3ccccc3P(C)(C)=O)n2)c(OC)cc1C#CC(C)(C)N [Example 65, N-(2-(3-amino-3-methylbut-1-yn-1-yl)-5-((5-chloro-4-((2-(dimethylphosphoryl)phenyl)amino)pyrimidin-2-yl)amino)-4-methoxyphenyl)acrylamide]",< 50,< 50,< 50,< 50,≥ 250,< 50
"C=CC(=O)Nc1cc(Nc2ncc(Cl)c(Nc3ccccc3P(C)(C)=O)n2)c(OC)cc1N(C)CCN(C)CCF [Example 67, N-(5-((5-chloro-4-((2-(dimethylphosphoryl)phenyl)amino)pyrimidin-2-yl)amino)-2-((2-((2-fluoroethyl)(methyl)amino)ethyl)(methyl)amino)-4-methoxyphenyl)acrylamide]",< 50,< 50,< 50,< 50,≥ 250,< 50
"C=CC(=O)Nc1cc(Nc2ncc(Cl)c(Nc3ccccc3P(C)(C)=O)n2)c(OC)cc1N1CCC(N2CCC2)C1 (stereo not drawn) [Example 68, N-(2-(3-(azetidin-1-yl)pyrrolidin-1-yl)-5-((5-chloro-4-((2-(dimethylphosphoryl)phenyl)amino)pyrimidin-2-yl)amino)-4-methoxyphenyl)acrylamide]",< 50,< 50,< 50,< 50,≥ 250,< 50
"C=CC(=O)Nc1cc(Nc2ncc(Cl)c(Nc3ccccc3P(C)(C)=O)n2)c(OC)cc1N1CCC(N2CCCCC2)CC1 [Example 69, N-(2-([1,4′-bipiperidin]-1-yl)-5-((5-chloro-4-((2-(dimethylphosphoryl)phenyl)amino)pyrimidin-2-yl)amino)-4-methoxyphenyl)acrylamide]",< 50,< 50,< 50,< 50,≥ 250,< 50
"C=CC(=O)Nc1cc(Nc2ncc(Cl)c(Nc3ccccc3P(C)(C)=O)n2)c(OC)cc1N1CCC(N2CCOCC2)CC1 [Example 70, N-(5-((5-chloro-4-((2-(dimethylphosphoryl)phenyl)amino)pyrimidin-2-yl)amino)-4-methoxy-2-(4-morpholinopiperidin-1-yl)phenyl)acrylamide]",< 50,< 50,< 50,< 50,≥ 250,< 50
"C=CC(=O)Nc1cc(Nc2ncc(Cl)c(Nc3ccccc3P(C)(C)=O)n2)c(OC)cc1N1CCC(N2CCCN(C)CC2)CC1 [Example 71, N-(5-((5-chloro-4-((2-(dimethylphosphoryl)phenyl)amino)pyrimidin-2-yl)amino)-4-methoxy-2-(4-(4-methyl-1,4-diazepan-1-yl)piperidin-1-yl)phenyl)acrylamide]",< 50,< 50,50 to 100,101 to 250,≥ 250,< 50
"C=CC(=O)Nc1cc(Nc2ncc(Cl)c(Nc3ccccc3P(C)(C)=O)n2)c(OC)cc1N1CCC(N2CCCC2)CC1 [Example 72, N-(5-((5-chloro-4-((2-(dimethylphosphoryl)phenyl)amino)pyrimidin-2-yl)amino)-4-methoxy-2-(4-(pyrrolidin-1-yl)piperidin-1-yl)phenyl)acrylamide]",50 to 100,< 50,< 50,101 to 250,≥ 250,< 50
